What was measured:
Assay in all cases: Test C preemergence
Type in all cases: in vivo
[1] = system: ryegrass, Italian (Italian ryegrass, Lolium multiflorum); details: for Plant response rating, Ryegrass, Italian: scale 0 to 100, 0 no effect, 100 complete control
How it was run: (§1)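 Visual rating, 0–100 scale (0 = no effect, 100 = complete control) versus controls, 13–15 d after treatment. Compounds in non-phytotoxic solvent plus surfactant; applied preemergence to seeds in loam/sand soil or postemergence to 1- to 4-leaf plants (2–18 cm) in peat/vermiculite medium; greenhouse-held.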

[2] = system: johnsongrass (Sorghum halepense); details: for Plant response rating, Johnsongrass: scale 0 to 100, 0 no effect, 100 complete control
How it was run: as §1

[3] = system: crabgrass, large (large crabgrass, Digitaria sanguinalis); details: for Plant response rating, Crabgrass, Large: scale 0 to 100, 0 no effect, 100 complete control
How it was run: as §1

[4] = system: nutsedge, yellow (yellow nutsedge, Cyperus esculentus); details: for Plant response rating, Nutsedge, Yellow: scale 0 to 100, 0 no effect, 100 complete control
How it was run: as §1

[5] = system: corn (Zea mays); details: for Plant response rating, Corn: scale 0 to 100, 0 no effect, 100 complete control
How it was run: as §1

[6] = system: waterhemp (common waterhemp, Amaranthus rudis); details: for Plant response rating, Waterhemp: scale 0 to 100, 0 no effect, 100 complete control
How it was run: as §1

[7] = system: barnyardgrass (Echinochloa crus-galli); details: for Plant response rating, Barnyardgrass: scale 0 to 100, 0 no effect, 100 complete control
How it was run: as §1

[8] = system: wheat (winter wheat, Triticum aestivum); details: for Plant response rating, Wheat: scale 0 to 100, 0 no effect, 100 complete control
How it was run: as §1

[9] = system: soybean (Glycine max); details: for Plant response rating, Soybean: scale 0 to 100, 0 no effect, 100 complete control
How it was run: as §1

[10] = system: morningglory (Ipomoea coccinea); details: for Plant response rating, Morningglory: scale 0 to 100, 0 no effect, 100 complete control
How it was run: as §1

[11] = system: ragweed (common ragweed, Ambrosia elatior); details: for Plant response rating, Ragweed: scale 0 to 100, 0 no effect, 100 complete control
How it was run: as §1

[12] = system: oilseed rape (Brassica napus); details: for Plant response rating, Oilseed Rape: scale 0 to 100, 0 no effect, 100 complete control
How it was run: as §1

[13] = system: blackgrass (Alopecurus myosuroides); details: for Plant response rating, Blackgrass: scale 0 to 100, 0 no effect, 100 complete control
How it was run: as §1

[14] = system: velvetleaf (Abutilon theophrasti); details: for Plant response rating, Velvetleaf: scale 0 to 100, 0 no effect, 100 complete control
How it was run: as §1

[15] = system: foxtail, giant (giant foxtail, Setaria faberii); details: for Plant response rating, Foxtail, Giant: scale 0 to 100, 0 no effect, 100 complete control
How it was run: as §1

[16] = system: Galium (catchweed bedstraw, Galium aparine); details: for Plant response rating, Galium: scale 0 to 100, 0 no effect, 100 complete control
How it was run: as §1

[17] = system: lambsquarters (Chenopodium album); details: for Plant response rating, Lambsquarters: scale 0 to 100, 0 no effect, 100 complete control
How it was run: as §1

[18] = 31 g ai/ha, 0 is no effect, 100 is complete control

In the case of `CN1CC(c2ccc(F)c(C(F)(F)F)c2)C(C(=O)Nc2cccc(F)c2F)C1=O` (centres unmarked) [Compound 613], the “Plant response rating (scale of 0 to 100), Ryegrass, Italian” value [1, 18] is reported as 10, the “Plant response rating, Ryegrass, Italian” value ([1]; 62 g ai/ha) is reported as 25 and the “Plant response rating, Ryegrass, Italian” value ([1]; 125 g ai/ha) is reported as 75. For the same compound, the “Plant response rating, Ryegrass, Italian” value ([1]; 250 g ai/ha) was 95, the “Plant response rating (scale of 0 to 100), Johnsongrass” value [2, 18] was 75 and the “Plant response rating, Johnsongrass” value ([2]; 62 g ai/ha) was 85. The “Plant response rating, Johnsongrass” value ([2]; 125 g ai/ha) was 90, the “Plant response rating, Johnsongrass” value ([2]; 250 g ai/ha) was 90 and the “Plant response rating (scale of 0 to 100), Crabgrass, Large” value [3, 18] was 95. For the same compound, the “Plant response rating, Crabgrass, Large” value ([3]; 62 g ai/ha) was 95, the “Plant response rating, Crabgrass, Large” value ([3]; 125 g ai/ha) was 95 and the “Plant response rating, Crabgrass, Large” value ([3]; 250 g ai/ha) was 98. For the same compound, the “Plant response rating (scale of 0 to 100), Nutsedge, Yellow” value [4, 18] was 0, the “Plant response rating, Nutsedge, Yellow” value ([4]; 62 g ai/ha) was 0 and the “Plant response rating, Nutsedge, Yellow” value ([4]; 125 g ai/ha) was 10. For the same compound, the “Plant response rating, Nutsedge, Yellow” value ([4]; 250 g ai/ha) was 20, the “Plant response rating (scale of 0 to 100), Corn” value [5, 18] was 40 and the “Plant response rating, Corn” value ([5]; 62 g ai/ha) was 55. The “Plant response rating, Corn” value ([5]; 125 g ai/ha) was 65, the “Plant response rating, Corn” value ([5]; 250 g ai/ha) was 85 and the “Plant response rating (scale of 0 to 100), Waterhemp” value [6, 18] was 70. For the same compound, the “Plant response rating, Waterhemp” value ([6]; 62 g ai/ha) was 75, the “Plant response rating, Waterhemp” value ([6]; 125 g ai/ha) was 85 and the “Plant response rating, Waterhemp” value ([6]; 250 g ai/ha) was 90. For the same compound, the “Plant response rating (scale of 0 to 100), Barnyardgrass” value [7, 18] was 90, the “Plant response rating, Barnyardgrass” value ([7]; 62 g ai/ha) was 95 and the “Plant response rating, Barnyardgrass” value ([7]; 125 g ai/ha) was 95. The “Plant response rating, Barnyardgrass” value ([7]; 250 g ai/ha) was 98, the “Plant response rating (scale of 0 to 100), Wheat” value [8, 18] was 25 and the “Plant response rating, Wheat” value ([8]; 62 g ai/ha) was 45. For the same compound, the “Plant response rating, Wheat” value ([8]; 125 g ai/ha) was 65, the “Plant response rating, Wheat” value ([8]; 250 g ai/ha) was 70 and the “Plant response rating (scale of 0 to 100), Soybean” value [9, 18] was 0. The “Plant response rating, Soybean” value ([9]; 62 g ai/ha) was 0, the “Plant response rating, Soybean” value ([9]; 125 g ai/ha) was 0 and the “Plant response rating, Soybean” value ([9]; 250 g ai/ha) was 0. For the same compound, the “Plant response rating (scale of 0 to 100), Morningglory” value [10, 18] was 40, the “Plant response rating, Morningglory” value ([10]; 62 g ai/ha) was 40 and the “Plant response rating, Morningglory” value ([10]; 125 g ai/ha) was 55. The “Plant response rating, Morningglory” value ([10]; 250 g ai/ha) was 50, the “Plant response rating (scale of 0 to 100), Ragweed” value [11, 18] was 25 and the “Plant response rating, Ragweed” value ([11]; 62 g ai/ha) was 25. For the same compound, the “Plant response rating, Ragweed” value ([11]; 125 g ai/ha) was 40, the “Plant response rating, Ragweed” value ([11]; 250 g ai/ha) was 65 and the “Plant response rating (scale of 0 to 100), Oilseed Rape” value [12, 18] was 15. The “Plant response rating, Oilseed Rape” value ([12]; 62 g ai/ha) was 70, the “Plant response rating, Oilseed Rape” value ([12]; 125 g ai/ha) was 90 and the “Plant response rating, Oilseed Rape” value ([12]; 250 g ai/ha) was 90. For the same compound, the “Plant response rating (scale of 0 to 100), Blackgrass” value [13, 18] was 85, the “Plant response rating, Blackgrass” value ([13]; 62 g ai/ha) was 85 and the “Plant response rating, Blackgrass” value ([13]; 125 g ai/ha) was 95. For the same compound, the “Plant response rating, Blackgrass” value ([13]; 250 g ai/ha) was 95, the “Plant response rating (scale of 0 to 100), Velvetleaf” value [14, 18] was 30 and the “Plant response rating, Velvetleaf” value ([14]; 62 g ai/ha) was 40. For the same compound, the “Plant response rating, Velvetleaf” value ([14]; 125 g ai/ha) was 40, the “Plant response rating, Velvetleaf” value ([14]; 250 g ai/ha) was 70 and the “Plant response rating (scale of 0 to 100), Foxtail, Giant” value [15, 18] was 95. The “Plant response rating, Foxtail, Giant” value ([15]; 62 g ai/ha) was 95, the “Plant response rating, Foxtail, Giant” value ([15]; 125 g ai/ha) was 95 and the “Plant response rating, Foxtail, Giant” value ([15]; 250 g ai/ha) was 98. For the same compound, the “Plant response rating (scale of 0 to 100), Galium” value [16, 18] was 90, the “Plant response rating, Galium” value ([16]; 62 g ai/ha) was 90 and the “Plant response rating, Galium” value ([16]; 125 g ai/ha) was 90. For the same compound, the “Plant response rating, Galium” value ([16]; 250 g ai/ha) was 90, the “Plant response rating (scale of 0 to 100), Lambsquarters” value [17, 18] was 25 and the “Plant response rating, Lambsquarters” value ([17]; 62 g ai/ha) was 60. For the same compound, the “Plant response rating, Lambsquarters” value ([17]; 125 g ai/ha) was 50 and the “Plant response rating, Lambsquarters” value ([17]; 250 g ai/ha) was 75.

From patent US12077503B2, “Substituted cyclic amides and their use as herbicides” (FMC CORPORATION, priority 2015, dated 2024)
